For 24 molecules, IC50 results are on record in US9562043B2 (EA Pharma Co., Ltd., priority 2012, dated 2017).

T1 sequence (O75762 whole entry): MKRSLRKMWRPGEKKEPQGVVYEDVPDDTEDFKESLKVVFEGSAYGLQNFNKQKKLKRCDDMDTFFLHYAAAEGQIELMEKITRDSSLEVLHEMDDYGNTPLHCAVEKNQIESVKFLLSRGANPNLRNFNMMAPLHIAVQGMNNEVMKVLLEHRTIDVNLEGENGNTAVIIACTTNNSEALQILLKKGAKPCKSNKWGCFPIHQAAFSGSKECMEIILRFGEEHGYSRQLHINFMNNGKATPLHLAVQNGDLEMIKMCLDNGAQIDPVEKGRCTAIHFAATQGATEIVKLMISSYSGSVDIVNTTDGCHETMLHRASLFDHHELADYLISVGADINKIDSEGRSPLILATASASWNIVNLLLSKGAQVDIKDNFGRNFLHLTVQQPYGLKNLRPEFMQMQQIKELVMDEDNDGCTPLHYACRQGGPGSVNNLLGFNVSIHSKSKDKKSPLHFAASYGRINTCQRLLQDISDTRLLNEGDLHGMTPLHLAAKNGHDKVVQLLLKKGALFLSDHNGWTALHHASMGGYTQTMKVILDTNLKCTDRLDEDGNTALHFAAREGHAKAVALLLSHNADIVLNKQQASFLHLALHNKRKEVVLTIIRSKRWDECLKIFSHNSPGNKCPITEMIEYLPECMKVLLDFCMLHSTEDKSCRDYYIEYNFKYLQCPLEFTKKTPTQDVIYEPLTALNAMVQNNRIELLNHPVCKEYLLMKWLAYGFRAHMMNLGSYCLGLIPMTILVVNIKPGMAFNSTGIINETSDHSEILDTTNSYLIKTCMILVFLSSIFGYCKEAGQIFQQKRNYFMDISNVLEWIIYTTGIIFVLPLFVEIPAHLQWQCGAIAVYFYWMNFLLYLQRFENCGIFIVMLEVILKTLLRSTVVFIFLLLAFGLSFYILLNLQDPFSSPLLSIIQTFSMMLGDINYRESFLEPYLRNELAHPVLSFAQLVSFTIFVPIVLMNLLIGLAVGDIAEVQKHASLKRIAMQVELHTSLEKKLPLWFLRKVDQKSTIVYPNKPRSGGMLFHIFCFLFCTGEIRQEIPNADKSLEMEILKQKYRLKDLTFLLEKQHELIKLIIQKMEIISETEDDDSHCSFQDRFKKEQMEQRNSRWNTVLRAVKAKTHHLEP

This assay concerns the target T1, human TRPA1 (Homo sapiens, UniProt O75762).
T1 construct: host or cells: human embryonic kidney-derived 293T cells, transient transfection with pcDNA3.1/zeo(+) plasmid
Description: Measurement of TRPA1 antagonist activity (intracellular calcium increase, FLIPR). In kind it is cell-based. The settings on record: 293T cells transfected with human TRPA1 expression plasmid, allylisothiocyanate 20 μM stimulation, calcium fluorescence, read-out: antagonism hTRPA1. The text has this:
Measurement of TRPA1 Antagonist Activity
Human TRPA1 Expression Plasmid
As cDNA encoding human TRPA1 (GenBank accession No. […]), a commercially available product was purchased (manufactured by Kazusa DNA Research Institute, clone No.: pFN21AB7348, item No.: FHC07217). Using this as a template, full-length human TRPA1 gene was amplified using the primer sequences shown below, by reaction using DNA polymerase (manufactured by Stratagene, trade name: PfuUltra High-Fidelity DNA Polymerase).
A recognition site (underlined) of restriction enzyme HindIII was added to the 5′ side, and XbaI site (underlined) was added to the 3′ side, and GTT of the template sequence was changed to termination codon TAG (bold). The obtained double stranded DNA was enzyme-digested with HindIII and XbaI, and introduced into a multicloning site of expression plasmid pcDNA3.1/zeo(+) (manufactured by Invitrogen) to give a human TRPA1 expression plasmid.
Human embryonic kidney-derived 293T cells were cultured in Dulbecco's Modified Eagle Medium containing 10% fetal bovine serum, 10 unit penicillin, and 10 μg streptomycin, plated on a petri dish having a diameter of 10 cm at 3×10^6 cells, and cultured for 24 hr. A medium containing a reduced amount of serum (manufactured by Invitrogen, trade name: OPTI-MEM, 600 μL), a gene insertion reagent (manufactured by Mirus Bio, trade name: Mirus TransIT-293, 18 μL), and human TRPA1 expression plasmid (6 μg) were mixed, the total amount of the mixture was added to the cells on the petri dish to allow for gene transfer. The cells were recovered about 8 hr later, plated on a poly-D-lysine coated 384 well black/clear bottom plate at 7,500-12,000 cells/well, and cultured overnight.
Measurement of Intracellular Calcium Increase
The 384 well plate was recovered, and the medium was removed. A calcium-bonded fluorescent indicator (manufactured by Molecular Device, trade name: Calcium4 Assay Kit, 40 μL) dissolved in assay buffer (1×HBSS, 20 mM HEPES, pH 7.2) was added, and the cells were stained in a 37° C. incubator for 1 hr. The cells were taken out at room temperature and left standing for 15 min or more. A test substance (10 μL) was added by a 384 well type dispenser, and the mixture was incubated at room temperature for 10 min. Then, allylisothiocyanate (12.5 μL) at a final concentration of 20 μM was added by a fluorescence imaging plate reader (manufactured by Molecular Device, FLIPR), and changes in the relative fluorescence intensity were measured for 5 min.
Test Substance Preparation
The test substance was dissolved in dimethyl sulfoxide and serially diluted with an assay buffer containing 0.1% bovine serum albumin (1×HBSS, 20 mM HEPES, pH 7.2) to a 5-fold concentration of the evaluation concentration. Allylisothiocyanate, which is a known TRPA1 activator, was dissolved in dimethyl sulfoxide to 100 mM, and further diluted 5-fold (100 μM) of the final concentration, like the test substance.
Calculation of Antagonist Activity
Under the test substance-free conditions, the maximum variation range of the fluorescence intensity before and after allylisothiocyanate stimulation was defined to be 100% activity rate, and the variation range before and after buffer stimulation was defined as 0% activity rate. The activity rate on addition of the test substance was determined, and the numerical value obtained by subtracting the activity rate from 100 was defined to be an inhibitory rate. IC50, which is the concentration of the test substance necessary for reaching the 50% inhibitory rate, was calculated from the sigmoid approximate curve by a spreadsheet software Excel-Fit.
For the molecule `O=C(NCc1nc(-c2ccc(C(F)(F)F)cc2)co1)[C@@H]1C=CCN1S(=O)(=O)c1ccc(Cl)s1` [compound 25, (2S)-1-(5-chlorothiophene-2-3ulfonyl)-N-({4-[4-(trifluoromethyl)phenyl]-oxazol-2-yl}methyl)-3,4-didehydropyrrolidine-2-carboxamide], the IC50 amounted to 260 nM.
For `O=C(NCc1csc(-c2ccc(C(F)(F)F)cc2)n1)[C@@H]1C=CCN1S(=O)(=O)c1ccc(Cl)s1` [compound 26, (2S)-1-(5-chlorothiophene-2-sulfonyl)-N-({2-[4-(trifluoromethyl)phenyl]-thiazol-4-yl}methyl)-3,4-didehydropyrrolidine-2-carboxamide] the value was 180 nM; for `O=C(NCc1nc(-c2ccc(C(F)(F)F)cc2)cs1)[C@@H]1CC(F)(F)CN1S(=O)(=O)c1ccc(Cl)s1` [compound 27, (2S)-1-(5-chlorothiophene-2-sulfonyl)-N-({4-[4-(trifluoromethyl)phenyl]-thiazol-2-yl}methyl)-4,4-difluoropyrrolidine-2-carboxamide], 960 nM; for `O=C(NCc1nc(-c2ccc(C(F)(F)F)cc2)cs1)[C@@H]1C[C@@H](O)CN1S(=O)(=O)c1ccc(Cl)s1` [compound 28, (2S,4R)-1-(5-chlorothiophene-2-sulfonyl)-N-({4-[4-(trifluoromethyl)phenyl]-thiazol-2-yl}methyl)-hydroxypyrrolidine-2-carboxamide], 2690 nM.
In the case of `O=C(NCc1nc(-c2ccc(C(F)(F)F)cc2)cs1)[C@@H]1CSCN1S(=O)(=O)c1ccc(Cl)s1` [compound 29, (4R)-3-(5-chlorothiophene-2-sulfonyl)-N-({4-[4-(trifluoromethyl)phenyl]-thiazol-2-yl}methyl)-1,3-thiazolidine-4-carboxamide], the IC50 was determined as 580 nM.
For `CC1(C)SCN(S(=O)(=O)c2ccc(Cl)s2)[C@@H]1C(=O)NCc1nc(-c2ccc(C(F)(F)F)cc2)cs1` [compound 30, (4R)-3-(5-chlorothiophene-2 sulfonyl)-N-({4-[4-(trifluoromethyl)phenyl]-thiazol-2-yl}methyl)-5,5-dimethyl-1,3-thiazolidine-4 carboxamide] the value was 520 nM.
In the case of `O=C(NCc1nc(-c2ccc(C(F)(F)F)cc2)cs1)[C@@H]1CCN1S(=O)(=O)c1ccc(Cl)s1` [compound 31, (2S)-1-(5-chlorothiophene-2-sulfonyl)-N-({4-[4-(trifluoromethyl)phenyl]-thiazol-2-yl}methyl)azetidine-2-carboxamide], the IC50 turned out to be 750 nM.
Regarding `O=C(NCc1nc(-c2ccc(OC(F)(F)F)cc2)cs1)[C@@H]1CCN1S(=O)(=O)c1ccc(Cl)s1` [compound 32, (2S)-1-[5-chlorothiophene-2-sulfonyl)-N-({4-[4-(trifluoromethoxy)phenyl]-thiazol-2-yl}methyl)azetidine-2-carboxamide], the IC50 was 2790 nM.
For `C[C@@]1(C(=O)NCc2nc(-c3ccc(C(F)(F)F)cc3)cs2)CCCN1S(=O)(=O)c1ccc(Cl)s1` [compound 33, (2S)-1-(5-chlorothiophene-2-sulfonyl)-N-({4-[4-(trifluoromethyl)phenyl]-thiazol-2-yl}methyl)-2-methylpyrrolidine-2-carboxamide] the value was 740 nM; for `C[C@@]1(C(=O)NCc2nc(-c3ccc(OC(F)(F)F)cc3)cs2)CCCN1S(=O)(=O)c1ccc(Cl)s1` [compound 34, (2S)-1-(5-chlorothiophene-2-sulfonyl)-N-({4-[4-(trifluoromethoxy)phenyl]-thiazol-2-yl}methyl)-2-methylpyrrolidine-2-carboxamide], 890 nM; for `C[C@H](NC(=O)[C@]1(C)CCCN1S(=O)(=O)c1ccc(Cl)s1)c1nc(-c2ccc(OC(F)(F)F)cc2)cs1` [compound 35, (2S)-1-(5-chlorothiophene-2-sulfonyl)-N-[(1S)-1-{4-[4-(trifluoromethoxy)phenyl]-thiazol-2-yl}ethyl]-2-methylpyrrolidine-2-carboxamide], 2500 nM.
With `O=C(NCc1nc(-c2ccc(C(F)(F)F)cc2)cs1)[C@@H]1CCCN1S(=O)(=O)c1cccs1` [compound 36, (2S)-1-(thiophene-2-sulfonyl)-N-({4-[4-(trifluoromethyl)-phenyl]thiazol-2-yl}methyl)pyrrolidine-2-carboxamide], the IC50 is 1790 nM.
Then `O=C(NCc1nc(-c2ccc(C(F)(F)F)cc2)cs1)[C@@H]1CCCN1S(=O)(=O)c1ccc(F)cc1` [compound 37], with 1000 nM; and `O=C(NCc1nc(-c2ccc(C(F)(F)F)cc2)cs1)[C@@H]1CCCN1S(=O)(=O)c1ccc(Cl)cc1` [compound 38], with 980 nM; and `O=C(NCc1nc(-c2ccc(C(F)(F)F)cc2)cs1)[C@@H]1CCCN1S(=O)(=O)c1ccc(Br)s1` [compound 39, (2S)-1-(5-bromothiophene-2-sulfonyl)-N-({4-[4-(trifluoromethyl)phenyl]thiazol-2-yl}methyl)pyrrolidine-2-carboxamide], with 200 nM.
For `O=C(NCc1nc(-c2ccc(C(F)(F)F)cc2)cs1)[C@@H]1CCCN1S(=O)(=O)c1cc(Br)c(Cl)s1` [compound 40, (2S)-1-(4-bromo-5-chlorothiophene-2-sulfonyl) ({4-[4-{trifluoromethyl)-phenyl]thiazol-2-yl}methyl) pyrrolidine-2-carboxamide] the value was 270 nM.
As for `Cc1ccc(S(=O)(=O)N2CCC[C@H]2C(=O)NCc2nc(-c3ccc(C(F)(F)F)cc3)cs2)s1` [compound 41, (2S)-1-(5-methylthiophene-2-sulfonyl)-N-({4-[4-(trifluoro-methyl)phenyl]thiazol-2-yl}-methyl)pyrrolidine-2-carboxamide], the IC50 was 1900 nM.
For `O=C(NCc1nc(-c2ccc(C(F)(F)F)cc2)cs1)[C@@H]1CCCN1S(=O)(=O)c1ccc(Br)cc1` [compound 42, (2S)-1-(4-bromobenzene-2-sulfonyl)-N-({4-[4-(trifluoro-methyl)phenyl]thiazol-2-yl)-methyl)pyrrolidine-2-carboxamide] the value was 1490 nM.
`O=C(NCc1nc(-c2ccc(C(F)(F)F)cc2)cs1)[C@@H]1CCCN1S(=O)(=O)c1cccc(Cl)c1` [compound 43]: the IC50 amounted to 2700 nM.
For `O=C(NCc1ccc(-c2ccc(OC(F)(F)F)cc2)s1)[C@@H]1CCCN1S(=O)(=O)c1ccc(Cl)s1` [compound 44, (2S)-1-(5-chlorothiophene-2-sulfonyl)-N-({5-[4-(trifluoro-methoxy)phenyl]-2-thienyl}methyl)pyrrolidine-2-carboxamide] the value was 120 nM.
For `Cc1sc(-c2ccc(C(F)(F)F)cc2)nc1CNC(=O)[C@@H]1CCCN1S(=O)(=O)c1ccc(Cl)s1` [compound 45, (2S)-1-(5-chlorothiophene-2-sulfonyl)-N-({5-methyl-2-[4-(trifluoromethyl)phenyl]-thiazol-4-yl}methyl)-pyrrolidine-2-carboxamide] the value was 110 nM.
For `O=C(NCc1nc(-c2ccc(C(F)(F)F)cc2)cs1)[C@@H]1CCCN1S(=O)(=O)c1ccc(Cl)nc1` [compound 46, (2S)-1-[(6-chloro-3-pyridyl)-sulfonyl]-N-({4-[4-(trifluoro-methyl)phenyl]thiazol-2-yl}-methyl)pyrrolidine-2-carboxamide] the value was 570 nM.
As for `O=C(NCc1nc(-c2ccc(C(F)(F)F)cc2)cs1)[C@@H]1CCCN1S(=O)(=O)c1ccccc1` [compound 47, (2S)-1-(benzenesulfonyl)-N-({4-[4-(trifluoromethyl)-phenyl]thiazol-2-yl}methyl)-pyrrolidine-2-carboxamide], the IC50 is 810 nM.
For `O=C(NCc1nc(-c2ccc(C(F)(F)F)cc2)cs1)[C@@H]1CCCN1S(=O)(=O)c1ccco1` [compound 48, (2S)-1-(2-furylsulfonyl)-N-({4-[4-(trifluoromethyl)-phenyl]thiazol-2-yl}methyl)-pyrrolidine-2-carboxamide] the value was 990 nM.
